The series is described as follows: fraction unbound in murine plasma. It counts as in vitro ADME. Particulars: mouse.

`CS(=O)(=O)O.Cc1nc(N(C)C(=O)Cc2ccc(-c3ccccn3)cc2)sc1S(N)(=O)=O` [mono mesylate monohydrate salt, N-[5-(aminosulfonyl)-4-methyl-1,3-thiazol-2-yl]-N-methyl-2-[4-(2-pyridinyl)-phenyl]acetamide mono methanesulfonic acid monohydrate] showed a fraction unbound of 0.028.

The values above are taken from patent US20150374676A1, “HELICASE-PRIMASE INHIBITORS FOR USE IN A METHOD OF TREATING ALZHEIMER'S DISEASE” (AICURIS GMBH & CO. KG, priority 2013, published 2015).
